Measurements reported in ChEMBL document CHEMBL1148413, “5-Fluorinated L-lysine analogues as selective induced nitric oxide synthase inhibitors” (J Med Chem, 2004).

Experiments:
Nitric oxide synthase 1 [1] = target: T1, Nitric oxide synthase 1 (Homo sapiens, UniProt P29475); test: Selectivity for Neuronal nitric oxide synthase over inducible nitric oxide synthase
[2] = target: T2, Nitric oxide synthase 3 (Homo sapiens) (UniProt P29474); test: Selectivity for endothelial nitric oxide synthase over inducible nitric oxide synthase
T2 sequence (whole entry): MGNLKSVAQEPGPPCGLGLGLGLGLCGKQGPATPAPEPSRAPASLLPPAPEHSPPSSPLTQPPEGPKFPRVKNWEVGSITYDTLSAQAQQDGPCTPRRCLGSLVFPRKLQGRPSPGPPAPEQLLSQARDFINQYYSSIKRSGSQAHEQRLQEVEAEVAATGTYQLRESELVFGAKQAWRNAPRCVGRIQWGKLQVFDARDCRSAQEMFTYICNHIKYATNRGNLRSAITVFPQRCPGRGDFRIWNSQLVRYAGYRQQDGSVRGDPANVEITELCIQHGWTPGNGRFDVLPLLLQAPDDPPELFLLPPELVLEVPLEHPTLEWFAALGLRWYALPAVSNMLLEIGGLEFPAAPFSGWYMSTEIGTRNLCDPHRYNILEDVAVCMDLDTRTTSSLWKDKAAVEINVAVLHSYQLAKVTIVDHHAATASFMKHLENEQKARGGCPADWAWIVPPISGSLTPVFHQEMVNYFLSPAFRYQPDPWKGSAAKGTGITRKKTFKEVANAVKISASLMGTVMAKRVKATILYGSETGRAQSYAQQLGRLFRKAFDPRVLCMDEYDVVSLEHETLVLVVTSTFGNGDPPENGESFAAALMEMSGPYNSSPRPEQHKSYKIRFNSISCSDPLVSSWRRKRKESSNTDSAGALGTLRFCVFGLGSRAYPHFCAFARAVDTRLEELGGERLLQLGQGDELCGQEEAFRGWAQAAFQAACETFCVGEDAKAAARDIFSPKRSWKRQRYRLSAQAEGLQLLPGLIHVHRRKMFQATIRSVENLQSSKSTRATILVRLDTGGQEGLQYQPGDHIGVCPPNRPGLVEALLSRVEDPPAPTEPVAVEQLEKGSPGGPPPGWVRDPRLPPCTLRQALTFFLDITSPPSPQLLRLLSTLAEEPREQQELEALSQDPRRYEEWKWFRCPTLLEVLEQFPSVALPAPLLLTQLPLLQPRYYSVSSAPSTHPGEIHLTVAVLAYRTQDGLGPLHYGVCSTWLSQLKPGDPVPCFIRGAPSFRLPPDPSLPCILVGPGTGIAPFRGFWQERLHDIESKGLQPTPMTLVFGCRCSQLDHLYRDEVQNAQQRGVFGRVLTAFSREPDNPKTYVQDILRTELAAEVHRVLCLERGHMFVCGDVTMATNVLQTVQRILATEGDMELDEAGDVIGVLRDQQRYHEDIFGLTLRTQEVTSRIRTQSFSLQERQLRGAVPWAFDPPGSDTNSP

[3] = target: T3, Nitric oxide synthase, inducible (Homo sapiens, UniProt P35228); test: Inhibition concentration against Inducible nitric oxide synthase (iNOS) at 10 uM concentration
Nitric oxide synthase 3 [4] = target: T4, Nitric oxide synthase 3 (Homo sapiens, UniProt P29474); test: (§1) Inhibition concentration against Endothelial nitric oxide synthase (eNOS) at 10 uM concentration
T4 sequence (P29474 whole entry): T2 sequence (whole entry)

Nitric oxide synthase 1 [5] = target: T1, Nitric oxide synthase 1; test: Inhibition concentration against Neuronal nitric oxide synthase (nNOS) at 10 uM concentration
[6] = target: T3, Nitric oxide synthase, inducible; details: 10 uM
Nitric oxide synthase 3 [7] = target: T4, Nitric oxide synthase 3; test: Percent inhibition against Endothelial nitric oxide synthase (eNOS) at 10 uM concentration
Nitric oxide synthase 1 [8] = target: T1, Nitric oxide synthase 1; details: 10 uM
[9] = target: T2, Nitric oxide synthase 3 (Homo sapiens); test: as §1

T1 sequence (P29475 whole entry): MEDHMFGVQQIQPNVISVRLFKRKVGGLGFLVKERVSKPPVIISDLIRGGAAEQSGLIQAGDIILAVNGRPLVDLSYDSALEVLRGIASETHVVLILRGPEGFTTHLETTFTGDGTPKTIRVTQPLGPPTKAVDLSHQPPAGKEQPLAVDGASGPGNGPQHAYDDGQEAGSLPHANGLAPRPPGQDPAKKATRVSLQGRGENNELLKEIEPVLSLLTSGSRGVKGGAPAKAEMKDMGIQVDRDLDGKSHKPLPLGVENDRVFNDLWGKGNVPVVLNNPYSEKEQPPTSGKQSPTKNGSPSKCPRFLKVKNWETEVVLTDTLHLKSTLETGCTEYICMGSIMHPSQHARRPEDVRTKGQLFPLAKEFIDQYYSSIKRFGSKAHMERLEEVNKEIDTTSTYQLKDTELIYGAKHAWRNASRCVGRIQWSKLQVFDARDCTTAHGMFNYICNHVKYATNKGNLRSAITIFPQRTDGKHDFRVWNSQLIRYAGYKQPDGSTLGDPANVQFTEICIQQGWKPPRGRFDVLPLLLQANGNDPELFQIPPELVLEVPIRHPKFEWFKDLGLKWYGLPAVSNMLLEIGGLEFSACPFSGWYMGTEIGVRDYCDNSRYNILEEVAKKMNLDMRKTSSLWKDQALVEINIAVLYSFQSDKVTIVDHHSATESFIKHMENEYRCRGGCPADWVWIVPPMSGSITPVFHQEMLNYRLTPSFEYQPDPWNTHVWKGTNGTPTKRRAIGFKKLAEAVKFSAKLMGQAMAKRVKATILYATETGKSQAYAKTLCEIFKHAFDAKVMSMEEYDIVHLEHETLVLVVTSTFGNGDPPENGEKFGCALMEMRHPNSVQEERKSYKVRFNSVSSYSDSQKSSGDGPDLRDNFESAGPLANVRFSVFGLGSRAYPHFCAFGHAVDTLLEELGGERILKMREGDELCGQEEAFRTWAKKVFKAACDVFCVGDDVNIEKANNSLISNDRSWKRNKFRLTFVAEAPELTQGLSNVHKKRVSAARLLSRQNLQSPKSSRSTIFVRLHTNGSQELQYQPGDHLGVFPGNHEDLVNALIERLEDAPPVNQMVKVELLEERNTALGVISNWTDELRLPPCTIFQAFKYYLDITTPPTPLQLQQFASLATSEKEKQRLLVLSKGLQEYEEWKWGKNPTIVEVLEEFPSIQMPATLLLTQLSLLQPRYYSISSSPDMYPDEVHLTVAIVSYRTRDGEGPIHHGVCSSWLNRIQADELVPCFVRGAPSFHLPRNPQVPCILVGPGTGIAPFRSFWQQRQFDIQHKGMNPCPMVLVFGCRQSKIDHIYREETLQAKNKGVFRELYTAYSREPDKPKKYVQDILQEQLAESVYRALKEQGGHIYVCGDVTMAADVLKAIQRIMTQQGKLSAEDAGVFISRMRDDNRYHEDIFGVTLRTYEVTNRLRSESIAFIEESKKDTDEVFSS
T3 sequence (P35228 whole entry): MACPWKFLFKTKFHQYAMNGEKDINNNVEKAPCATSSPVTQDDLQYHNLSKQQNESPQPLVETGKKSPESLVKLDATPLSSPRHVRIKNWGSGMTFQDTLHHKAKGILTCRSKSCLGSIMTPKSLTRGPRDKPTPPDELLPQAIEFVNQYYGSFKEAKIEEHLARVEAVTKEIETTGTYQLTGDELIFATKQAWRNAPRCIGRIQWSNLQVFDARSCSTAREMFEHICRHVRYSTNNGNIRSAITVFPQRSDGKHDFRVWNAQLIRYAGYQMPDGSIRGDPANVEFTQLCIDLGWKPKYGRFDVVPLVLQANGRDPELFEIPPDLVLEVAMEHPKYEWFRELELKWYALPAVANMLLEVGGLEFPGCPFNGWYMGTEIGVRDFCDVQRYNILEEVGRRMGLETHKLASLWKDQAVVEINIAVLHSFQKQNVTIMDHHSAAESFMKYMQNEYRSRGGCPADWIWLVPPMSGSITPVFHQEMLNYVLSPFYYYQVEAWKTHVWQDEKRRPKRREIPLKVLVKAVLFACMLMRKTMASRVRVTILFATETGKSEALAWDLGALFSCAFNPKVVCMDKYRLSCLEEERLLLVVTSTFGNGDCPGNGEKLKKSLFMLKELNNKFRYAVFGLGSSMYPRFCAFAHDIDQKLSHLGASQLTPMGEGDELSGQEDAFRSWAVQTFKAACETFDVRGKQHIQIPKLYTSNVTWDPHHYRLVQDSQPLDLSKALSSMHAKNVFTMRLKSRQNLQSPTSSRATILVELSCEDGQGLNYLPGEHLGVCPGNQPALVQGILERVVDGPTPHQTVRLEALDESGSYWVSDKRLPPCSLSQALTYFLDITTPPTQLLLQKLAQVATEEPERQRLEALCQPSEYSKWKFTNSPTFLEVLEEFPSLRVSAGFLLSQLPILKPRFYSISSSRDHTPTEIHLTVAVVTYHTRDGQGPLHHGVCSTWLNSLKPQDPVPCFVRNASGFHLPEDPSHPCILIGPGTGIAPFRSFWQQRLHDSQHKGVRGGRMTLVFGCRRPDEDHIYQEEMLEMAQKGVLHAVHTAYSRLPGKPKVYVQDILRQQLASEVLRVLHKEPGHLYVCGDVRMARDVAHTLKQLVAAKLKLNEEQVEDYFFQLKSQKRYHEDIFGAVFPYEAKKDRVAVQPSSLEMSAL

Row | Compound | Selectivity (Nitric oxide synthase 1 [1]) | Selectivity [2] | IC50 [3] | IC50 (Nitric oxide synthase 3 [4]) | IC50 (Nitric oxide synthase 1 [5]) | inhibition [6] | Inhibition (Nitric oxide synthase 3 [7]) | inhibition (Nitric oxide synthase 1 [8]) | inhibition [9]
1 | CC(=N)NC[C@@H](F)CC[C@H](N)C(=O)O | 9 | 34 | 2.36 µM | 81 µM | 21.7 µM |  |  |  | 
2 | CC(=N)NC[C@H](F)CC[C@H](N)C(=O)O |  |  |  |  |  | 4% | 28.2% | 0% | 
3 | CC(=N)NC[C@@H](F)CC[C@@H](N)C(=O)O | 7 | 8 | 47.8 µM | 374 µM | 311 µM |  |  |  | 

Further lines, results first:

Row | Selectivity (Nitric oxide synthase 1 [1]) | Selectivity [2] | IC50 [3] | IC50 (Nitric oxide synthase 3 [4]) | IC50 (Nitric oxide synthase 1 [5]) | inhibition [6] | Inhibition (Nitric oxide synthase 3 [7]) | inhibition (Nitric oxide synthase 1 [8]) | inhibition [9] | Compound
4 | 7 | 28 | 4.9 µM |  |  |  |  |  |  | CC(=N)NCCCC[C@H](N)C(=O)O [L-NIL]
5 | 9 | 23 | 7.84 µM | 182 µM | 70.4 µM |  |  |  |  | CC(=N)NCC(F)CCC(N)C(=O)O (centres undefined)
6 |  |  |  |  |  | 8.9% |  | 18% | 6.52% | CC(=N)NC[C@H](F)CC[C@@H](N)C(=O)O
7 | 7 | 7 | 21.4 µM | 139 µM | 140 µM |  |  |  |  | CC(=N)NCC(F)(F)CCC(N)C(=O)O (centres undefined)
8 | 4 | 7 | 8.75 µM | 57.5 µM | 33.8 µM |  |  |  |  | CC(=N)NCC(F)(F)CC[C@H](N)C(=O)O
